From patent US11969428B2, “Methods and pharmaceutical compositions for treating lymphoid malignancy” (priority 2011, dated 2024)

Legend:
Akt/PKB phosphorylation = assay: TCR-induced Akt/PKB phosphorylation in thymocytes (Western blot); type: cell-based, mouse; details: p110γ−/− thymocytes; IC87114 10 μM
Protocol: Cell lysates (from cell lines or thymocytes) were prepared on ice in M-PER Mammalian Protein Extraction reagent (Pierce) containing a cocktail of protease and phosphatase inhibitors (Swat et al., 2006). Equal amounts of total protein from lysates were subjected to SDS-PAGE, transferred to PVDF membrane (Immobilon-P, Millipore), and membranes probed by overnight incubation with appropriate primary antibodies. Bound antibodies were visualized with HRP-conjugated secondary antibodies and ECL chemistry (SuperPico West, Pierce).
To assess the requirement for p110δ in TCR-induced phosphorylation of Akt/PBK, single-cell suspensions of thymocytes (1×10^8/mL) from PI3Kγ-deficient animals were incubated with the p110δ-specific inhibitor IC87114 (10 μM) or with vehicle control (DMSO) for 30 minutes before TCR cross-linking, as described for the Ca^2+ flux assay. Aliquots (100 μL) were collected at 0, 10, 30, and 60 minutes after TCR cross-linking, briefly centrifuged to pellet, and subsequently lysed with ice-cold M-Per (Pierce, Rockford, IL) (according to the manufacturer's recommendations) that contained a cocktail of phosphatase and protease inhibitors (Puri et al., 2005). Lysates were clarified by centrifugation (12,000 g for 15 minutes at 4° C.), and total and phosphorylated Akt/PBK were determined by Western blot analysis.

CCRF-CEM cells = assay: Cell proliferation and apoptosis (cell counting, Annexin V); type: cell-based, human
Protocol: (§1) Cell proliferation of CCRF-CEM cells or shRNA transfected CCRF-CEM cells, in the presence or absence of appropriate drug, was followed by cell counting of samples in triplicate using a hemocytometer and trypan blue. For apoptosis determinations of untransfected or shRNA transfected CCRF-CEMs, cells were stained with APC-conjugated Annexin-V (BD Biosciences) in Annexin Binding Buffer (Miltyeni Biotec) and analyzed by flow cytometry. For primary T-ALL samples, cell viability was assessed using the BD Cell Viability kit (BD Biosciences) coupled with the use of fluorescent counting beads as previously described (Armstrong et al., 2009). For this, cells were plated with MS5-DL1 stroma cells, and after 72 hours following drug treatment cells were harvested and stained with an APC-conjugated anti-human CD45 followed by a staining with the above kit according to the manufacturer's instructions.

CD4+CD8+ DP thymocytes = assay: Fetal thymus organ culture, flow cytometry; type: cell-based, mouse; details: IC87114 10 μM, 1 week
Description: Thymus lobes were obtained from mouse embryos, with embryonic day 0 (EO) considered the day of vaginal plug detection. Fetal thymus organ cultures were used to compare the effects of pharmacologic blockade of p110δ activity on thymocyte development in WT, p110δ^−/−, and p110γ^−/− mice. Briefly, 3 to 4 intact thymi were placed on bare filter inserts (transwell, 3-μm pore size; Corning Costar, Cambridge, MA) and then were inserted into wells containing DMEM, 10% FCS supplemented with either p110δ-specific inhibitor IC87114 (10 μM) or vehicle control (DMSO), and incubated for 1 week at 37° C. in 5% CO2. Thymocyte differentiation was evaluated by flow cytometry.

[1] = system: primary human T-ALL tumor cells; assay: Primary T-ALL cell viability on MS5-DL1 stroma; type: cell-based; details: selective blockade of PI3Kδ
Protocol: as §1

[2] = CCRF-CEM with p110γ shRNA knockdown, IC87114 10 μM

In the case of `Cc1ccccc1-n1c(Cn2cnc3c(N)ncnc32)nc2cccc(C)c2c1=O` [IC87114, reference compound], the “phosphorylated form of Akt/PKB after TCR cross-linking” value (Akt/PKB phosphorylation) is reported as “not detected”, the proliferation and apoptosis (CCRF-CEM cells; CCRF-CEM containing empty vector alone, IC87114) is reported as “no major effect” and the apoptosis (CCRF-CEM cells; [2]) is reported as “promoted apoptosis”. For the same molecule, the proliferation (CCRF-CEM cells; [2]) was “prevented proliferation”, the “reduction in the population of CD4+CD8+ DP thymocytes” value (CD4+CD8+ DP thymocytes; p110γ−/− day 14.5 fetal thymi, mean±SE) was 69.2%±2.7% and the “decrease in DP cells” value (CD4+CD8+ DP thymocytes; p110δ−/− or WT control fetal thymi) was ≤ 10%. For the same molecule, the “viability of primary human T-ALL samples” value [1] was “ineffective”.
